System: 292921-168-R-J2-PDC complex spheroid growth
Assay: Anticancer human tumor 292921-168-R-J2-PDC patient-derived pancreatic carcinoma cell line growth inhibition [AhR]
Details: for IC50: curve of first compound; for viability, T/C: stronger effect = lower value
Method in brief: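 Spheroids combined tumor cells with HUVEC endothelial cells and human MSCs as stroma. AhR antagonists were paired with standard or investigational drugs, each dosed in half-log steps down from near clinical Cmax, or from 10 microM where Cmax was unknown.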
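Note: spheroids exposed to compounds for seven days after three days of growth.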

`CC(C)c1c(-c2ccccc2)nc2c(C#N)c[nH]n2c1=O` + Cc1cncc(-c2nc(NCCc3c[nH]c4ccccc34)c3ncn(C(C)C)c3n2)c1 was tested, and the IC50 (second compound 0.1 µM) was > 10 µM, the IC50 (second compound 0.316 µM) was > 10 µM and the IC50 (second compound 1 µM) was > 10 µM. The IC50 (second compound 3.16 µM) was > 10 µM, the IC50 (second compound 10 µM) was 0.386 µM and the viability, T/C (second compound 0.1 µM, first compound 0.0316 µM) was 103%. For the same compound, the viability, T/C (second compound 0.1 µM, first compound 0.1 µM) was 95.1%, the viability, T/C (second compound 0.1 µM, first compound 0.316 µM) was 89.7% and the viability, T/C (second compound 0.1 µM, first compound 1 µM) was 98.8%. It also gave a viability, T/C (second compound 0.1 µM, first compound 3.16 µM) of 97.4%, a viability, T/C (second compound 0.1 µM, first compound 10 µM) of 97.2% and a viability, T/C (second compound 0.316 µM, first compound 0.0316 µM) of 98.7%. The viability, T/C (second compound 0.316 µM, first compound 0.1 µM) was 98.8%, the viability, T/C (second compound 0.316 µM, first compound 0.316 µM) was 95.8% and the viability, T/C (second compound 0.316 µM, first compound 1 µM) was 99.8%. The viability, T/C (second compound 0.316 µM, first compound 3.16 µM) was 100%, the viability, T/C (second compound 0.316 µM, first compound 10 µM) was 92.7% and the viability, T/C (second compound 1 µM, first compound 0.0316 µM) was 91.2%. The viability, T/C (second compound 1 µM, first compound 0.1 µM) was 85.6%, the viability, T/C (second compound 1 µM, first compound 0.316 µM) was 88.9% and the viability, T/C (second compound 1 µM, first compound 1 µM) was 83.5%. It also gave a viability, T/C (second compound 1 µM, first compound 3.16 µM) of 75.4%, a viability, T/C (second compound 1 µM, first compound 10 µM) of 78.1% and a viability, T/C (second compound 3.16 µM, first compound 0.0316 µM) of 76.4%. It also gave a viability, T/C (second compound 3.16 µM, first compound 0.1 µM) of 76.3%, a viability, T/C (second compound 3.16 µM, first compound 0.316 µM) of 79% and a viability, T/C (second compound 3.16 µM, first compound 1 µM) of 67.1%. The viability, T/C (second compound 3.16 µM, first compound 3.16 µM) was 65.3%, the viability, T/C (second compound 3.16 µM, first compound 10 µM) was 62% and the viability, T/C (second compound 10 µM, first compound 0.0316 µM) was 51%. It also gave a viability, T/C (second compound 10 µM, first compound 0.1 µM) of 50.1%, a viability, T/C (second compound 10 µM, first compound 0.316 µM) of 56.2% and a viability, T/C (second compound 10 µM, first compound 1 µM) of 46.1%. For the same compound, the viability, T/C (second compound 10 µM, first compound 3.16 µM) was 43.9% and the viability, T/C (second compound 10 µM, first compound 10 µM) was 42.6%.
